Assay results published in US4691046A, “Butanedioic acid mono [(2-dimethylamino] ethyl ester)succinate” (Institut Organicheskoi Khimii Ordena Lenina I Ordena …, priority 1986, dated 1987).

Legend:
[1] = Survival of mice on acute cooling; format: in vivo; details: i.p. 1 hour before, 80 mg/kg (invention), 64 mg/kg (ester), 17 mg/kg (sodium succinate)
Description: The activity of the compound according to the present invention was studied in experiments on animals. The effectivemess of the compound according to the present invention was studied for resistance against an acute cold effect in comparison with conventional preparations such as butanedioic acid mono[(2-dimethylamino)ethyl ester] and sodium succinate.
The experiments were carried out on male mice (tetrahybdrids) with a body mass of 18-20 g which were placed into a cold chamber at a temperature of -15t to -17° C. in separate plastic cages slightly limiting their activity. […] The preparations were administered intraperiotoneally 1 hour before the cold effect the control animals were administered with a physiological solution.

Succinatedehydrogenase = test: Activity of succinatedehydrogenase in myocardium upon low-temperature treatment; format: in vivo, mice; details: 2.5 hours at -14° C.; 80 mg/kg (invention) or 64 mg/kg (ester); control 72.3 ± 1.6
Description: (§2) The preparations were administered one hour before the standard low-temperature treatment (-14° C.) in doses of 80 mg/kg of the compound according to the present invention and 64 mg/kg of the prior art compound-butanedioic acid mono[(2-dimethylamino)-ethyl ester].

Isocitratedehydrogenase = test: Activity of isocitratedehydrogenase in myocardium upon low-temperature treatment; format: in vivo, mice; details: 2.5 hours at -14° C.; 80 mg/kg (invention) or 64 mg/kg (ester); control 49.5 ± 1.2
Description: as §2

Glutamatedehydrogenase = test: Activity of glutamatedehydrogenase in myocardium upon low-temperature treatment; format: in vivo, mice; details: 2.5 hours at -14° C.; 80 mg/kg (invention) or 64 mg/kg (ester); control 68.8 ± 1.5
Description: as §2

Pyruvatedehydrogenase = test: Activity of pyruvatedehydrogenase in myocardium upon low-temperature treatment; format: in vivo, mice; details: 2.5 hours at -14° C.; 80 mg/kg (invention) or 64 mg/kg (ester); control 56.6 ± 1.1
Description: as §2

NADH2 --dehydrogenase = test: Activity of NADH2-dehydrogenase in myocardium upon low-temperature treatment; format: in vivo, mice; details: 2.5 hours at -14° C.; 80 mg/kg (invention) or 64 mg/kg (ester); control 69.8 ± 1.5
Description: as §2

[2] = tested on: NAD-Ph--H2 --dehydrogenase; test: Activity of NAD-Ph-H2-dehydrogenase in myocardium upon low-temperature treatment; format: in vivo, mice; details: 2.5 hours at -14° C.; 80 mg/kg (invention) or 64 mg/kg (ester); control 72.1 ± 1.4
Description: as §2

[3] = tested on: Glucose-6-phosphatedehydrogenase; test: Activity of glucose-6-phosphatedehydrogenase in myocardium upon low-temperature treatment; format: in vivo, mice; details: 2.5 hours at -14° C.; 80 mg/kg (invention) or 64 mg/kg (ester); control 57.3 ± 1.3
Description: as §2

[4] = Maximum duration of mice lifespan upon testing cold treatment (Le Blanc adaptation procedure); format: in vivo; details: with preliminary adaptation; 80 mg/kg (invention) or 64 mg/kg (ester); adaptation alone 6.0 ± 0.3
Description: (§1) To elucidate the effect of the compound according to the present invention on the adaptation phenomenon, experiments on male mice with a body mass of 18-20 g were carried out in conformity with the Le Blanc procedure according to which the mice were placed into a cold chamber (at -17° C.) for 10 minutes ever hour over the period of 9-10 hours. After one day the maximum lifespan of the mice at -17° C. was assessed along with the content of glucose in blood and of glycogen in organs upon a predetermined cold treatment (2.5 hours a -14° C.). The compound according to the present invention and butanedioic acid mono[(2-dimethylamino)-ethyl ester] (in doses of 80 and 64 mg/kg respectively) were introduced immediately after a series of short-time cold effects. In a number of experiments the compound according to the present invention was administered 1 hour prior to the testing (2.5 h) cold effect.

[5] = Blood glucose and organ glycogen upon predetermined (2.5 h) cold treatment (adaptation experiment); format: in vivo, mice; details: adaptation + preparation immediately after adaptation, 80 mg/kg (invention) or 64 mg/kg (ester), 2.5 h at -14° C.
Description: as §1

[6] = Stresso-protective activity, motion stress in slowly rotating drum for 48 hours; format: in vivo, rats; details: 48 h motion stress
Description: In evaluation of the stresso-protective activity of the compound according to the present invention as a model use was made of a procedure of depriving rats of sleep, meals and water in a slowly rotating drum (at the speed of 0.2 km/h).
The experiments were carried out on 42 nondescript male rats. In parallel experiments the antistress activity of butanedioic acid mono[(2-dimethylamino)ethyl ester] was studied; as the reference prepartion use was made of the prior art tranquilizer--diazepam which was used in the experiments for this very indication.
4 groups of animals were tested in parallel. Groups I and II were placed for 48 hours into a slowly rotating drum, groups III and IV were under normal conditions and were deprived only of meals and water. The compound according to the present invention and butanedioic acid mono[(2-dimethylamino)ethyl ester] were administered intraperitoneally in the dose of 10 mg/kg four times (2 times a day) in the volume of 2.5 ml/kg under the conditions of motion stress (Group I of the animals) and under normal conditions (Group III of animals). The control animals--Group II (active control) and Group IV (passive control) were given a physiological solution. The efficiency of the compound according to the present invention, of butanedioic acid mono[(2-dimethylamino)ethyl ester] and of diazepam was estimated on the basis of a set of characteristics showing the functional activity of the central nervous system, physical fitness and development of basic symptoms of the stress-syndrome.
The residence of control rats in a slowly-rotating drum over 48 hours results in a noticeable deterioration of all the studied characteristics, especially those of higher nervous activity (learning) and development of stress-syndrome. The state of control animals was characterized by lowering of the overall behavioural activity as determined by the "open-field" test (37±15%) with reference to the passive control level, by a reduction in the speed of development of a conventional avoiding response in an aqueous labyrinth (58±15%), by an increase in the number of mistakes during the teaching time (175±25%), lowering of the ultimate physical endurance as determined by the swimming-with-load test (the load is equal to 10% by mass of the body (70±17%), adrenal hypertrophy (146±16%), thymus atrophy (49±9%) and formation of ulcers on the stomach mucous membrane (5.25±1.0%).

[7] = Biochemical substrates in mice upon preset (2.5 hours) low-temperature treatment; details: 2.5 hours at -14° C., 1 hour after 80 mg/kg (invention) or 64 mg/kg (ester)
Description: as §2

Compound: CN(C)CCOC(=O)CCC(=O)O [Butanedioic acid mono[(2-dimethylamino)ethyl ester]] [reference compound]
- Survival, %, 1 hour ([1]; 1 hour of cold at -15 to -17° C.): 100%
- Survival, %, 2 hours ([1]; 2 hours of cold at -15 to -17° C.): 90%
- Survival, %, 3 hours ([1]; 3 hours of cold at -15 to -17° C.): 70%
- Survival, %, 4 hours ([1]; 4 hours of cold at -15 to -17° C.): 50%
- Survival, %, 5 hours ([1]; 5 hours of cold at -15 to -17° C.): 20%
- Survival, %, 6 hours ([1]; 6 hours of cold at -15 to -17° C.): 10%
- Activity of succinatedehydrogenase in myocardium (Succinatedehydrogenase): 75.6 ± 2.4 relative units
- Activity of isocitratedehydrogenase in myocardium (Isocitratedehydrogenase): 58.2 ± 1.4 relative units
- Activity of glutamatedehydrogenase in myocardium (Glutamatedehydrogenase): 72.4 ± 0.6 relative units
- Activity of pyruvatedehydrogenase in myocardium (Pyruvatedehydrogenase): 62.6 ± 3.5 relative units
- Activity of NADH2-dehydrogenase in myocardium (NADH2 --dehydrogenase): 70.8 ± 2.7 relative units
- Activity of NAD-Ph-H2-dehydrogenase in myocardium [2]: 76.4 ± 2.7 relative units
- Activity of glucose-6-phosphatedehydrogenase in myocardium [3]: 60.2 ± 1.4 relative units
- Lifespan in hours (at -17° C.), preliminary adaptation + preparation [4]: 6.2 ± 0.4 h
- Glycogen, heart ([5]; control 1.7 ± 0.2): 2.4 ± 0.2 mg/g
- Glycogen, liver ([5]; control 6.7 ± 0.4): 10.2 ± 2.7 mg/g
- Blood glucose ([5]; control 37 ± 6): 75 ± 4 mg. %
- stresso-protective activity compared with the compound of the invention ([6]; in words): far less pronounced
- Weight coefficient of thymus ([6]; 10 mg/kg i.p. four times (invention, ester), control 0.95 ± 0.18, 10 mg/kg): 1.08 g/kg of the initial body mass
- Weight coefficient of adrenal glands ([6]; 10 mg/kg i.p. four times (invention, ester), control 1.246 ± 0.028, 10 mg/kg): 1.42 g/kg of the initial body mass
- Number of attempts till reaching the learning criterion (water labyrinth) ([6]; 10 mg/kg i.p. four times (invention, ester), control 4.75 ± 0.5, 10 mg/kg): 4.10
- Number of ulcers on the stomach mucous membrane ([6]; 10 mg/kg i.p. four times (invention, ester), control 5.25 ± 1.0, 10 mg/kg): 4.2
- Duration of swimming ([6]; 10 mg/kg i.p. four times (invention, ester), control 244 ± 26, 10 mg/kg): 325 s
- Liver glycogen ([7]; control 8.1 ± 0.6, intact 35.2 ± 4.5): 6.7 ± 0.8 mg/kg
- Blood glucose ([7]; control 42 ± 4, intact 79 ± 3): 64 ± 2 mg. %
- Creatine phosphate ([7]; myocardium, control 1.2 ± 0.08, intact 3.7 ± 0.3): 1.4 ± 0.04 μm/g
